Experimental data taken from BindingDB's records for patent US9796706 (Imago Pharmaceuticals, 2017).

Assays:
Assay in all cases: HTRF Assay
[1] = target: Mitogen-activated protein kinase 9 (Homo sapiens, UniProt P45984)
Description: (§1) The aJNK solution (20 μl/well) was added to the plate and the plate was shaken. The enzyme was incubated with the compound at RT for 10 min.(5) ATP/substrate solution preparation: ATP and substrate stocks were thawed on ice. […] The ATP/substrate (20 μl/well) was added to the plate and the plate was shaken. The plate was incubated at RT for 15 min. Note: In an exemplary assay, the final ATP concentration was about 1 mM.(6) EDTA preparation: 30 mM EDTA was prepared using 0.5M EDTA stock and assay buffer #1. The EDTA (10 μl/well) was added to the plate to quench the enzyme reaction and the plate was shaken well.(7) Detection reagent preparation: Eu-63 and SA-XL stocks were thawed on ice. […] The Eu-63/SA-XL solution (20 μl/well) was added to the plate and the plate was shaken. The plate was incubated at RT for 1 hr before reading the plate on LJL using ratiometric method named HTRF.

[2] = target: Mitogen-activated protein kinase 10 (Homo sapiens, UniProt P53779)
Description: as §1

[3] = target: Mitogen-activated protein kinase 8 (Homo sapiens, UniProt P45983)
Description: as §1

Measured: IC50

Mitogen-activated protein kinase 9, sequence (P45984 whole entry): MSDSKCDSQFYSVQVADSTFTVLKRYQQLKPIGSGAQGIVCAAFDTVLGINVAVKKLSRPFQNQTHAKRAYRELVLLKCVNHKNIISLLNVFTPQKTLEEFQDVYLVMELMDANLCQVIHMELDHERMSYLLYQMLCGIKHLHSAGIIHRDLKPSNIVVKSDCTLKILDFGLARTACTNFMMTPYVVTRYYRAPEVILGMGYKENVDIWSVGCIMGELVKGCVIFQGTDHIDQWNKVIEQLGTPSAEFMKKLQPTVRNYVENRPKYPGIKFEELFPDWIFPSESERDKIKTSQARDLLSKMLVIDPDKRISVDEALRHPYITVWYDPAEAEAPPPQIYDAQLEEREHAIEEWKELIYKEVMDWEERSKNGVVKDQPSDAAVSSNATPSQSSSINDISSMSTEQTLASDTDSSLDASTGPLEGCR
Mitogen-activated protein kinase 10, sequence (P53779 whole entry): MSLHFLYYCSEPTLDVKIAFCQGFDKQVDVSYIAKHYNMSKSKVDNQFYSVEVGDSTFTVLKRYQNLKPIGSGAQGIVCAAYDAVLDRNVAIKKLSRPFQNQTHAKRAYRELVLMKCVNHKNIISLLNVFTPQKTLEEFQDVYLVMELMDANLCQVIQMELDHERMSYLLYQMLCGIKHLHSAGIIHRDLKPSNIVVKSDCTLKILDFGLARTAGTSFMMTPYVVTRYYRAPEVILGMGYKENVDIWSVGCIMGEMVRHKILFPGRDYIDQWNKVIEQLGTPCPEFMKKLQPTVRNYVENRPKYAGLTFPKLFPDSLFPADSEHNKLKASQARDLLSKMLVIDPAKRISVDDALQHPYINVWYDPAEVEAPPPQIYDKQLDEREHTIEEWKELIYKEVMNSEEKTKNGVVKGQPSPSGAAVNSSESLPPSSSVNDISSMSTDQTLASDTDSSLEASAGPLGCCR
Mitogen-activated protein kinase 8, sequence (P45983 whole entry): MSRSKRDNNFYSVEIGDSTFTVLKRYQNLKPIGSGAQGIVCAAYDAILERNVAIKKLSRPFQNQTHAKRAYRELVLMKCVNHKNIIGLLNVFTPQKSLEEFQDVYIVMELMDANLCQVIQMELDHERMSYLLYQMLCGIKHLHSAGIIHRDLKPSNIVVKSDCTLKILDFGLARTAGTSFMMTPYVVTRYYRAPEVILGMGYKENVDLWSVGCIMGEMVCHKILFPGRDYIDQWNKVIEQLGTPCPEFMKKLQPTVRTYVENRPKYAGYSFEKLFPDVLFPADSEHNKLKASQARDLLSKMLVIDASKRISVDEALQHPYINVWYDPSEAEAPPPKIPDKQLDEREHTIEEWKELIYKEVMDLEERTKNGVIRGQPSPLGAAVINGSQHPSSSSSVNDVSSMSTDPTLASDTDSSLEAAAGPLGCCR

O=C(Cn1c(=O)ccc2cc(C(F)(F)F)ccc21)N(CCCN1CCCC1)c1scc(Cl)c1-c1nc[nH]n1 [US9796706, Compound 162]
in the range around 5.05 µM: all assays above

CN(C)CCN(C(=O)Cn1c(=O)ccc2cc(C(F)(F)F)ccc21)c1scc(Cl)c1-c1nc[nH]n1 [US9796706, Compound 158]
in the range around 5.05 µM: all assays above
